Measurements: patent US20130261177A1, “COMPOUNDS CAPABLE OF MODULATING/PRESERVING ENDOTHELIAL INTEGRITY FOR USE IN PREVENTION OR TREATMENT OF ACUTE TRAUMATIC COAGULOPATHY AND RESUSCITATED CARDIAC ARREST” (priority 2010, published 2013)

Columns and labels:
PAI-1 = assay: Plasma biomarker ELISA after Flolan infusion in healthy volunteers: PAI-1; format: in vivo, human; details: 4 ng/kg/min intravenously for 2 h
Method: (§1) Eight healthy volunteers were administered Flolan® (Prostacyclin) intravenously at a dose of 4 ng/kg/min for 2 h. Blood samples were analyzed for plasma biomarkers indicative of endothelial cell (thrombomodulin, PAI-1) and glycocalyx (syndecan-1) activation and/or damage, cellular necrosis (histone-complexed DNA fragments, HMGB1) and anticoagulation (protein C, antithrombin, TFPI) at the following time points: Before the infusion (Oh), immediately after ceasing the infusion (2 h) and then 4 h, 5 h, 6 h, 8 h and 24 h after starting the infusion. The concentration of the individual biomarkers in plasma was analyzed by commercially available ELISA kits according to the manufactures recommendations. Paired t-tests with p-values <0.05 were considered significant.

[1] = system: whole blood haemostatic competence; assay: Whole blood viscoelastical assay (Thrombelastography, TEG), kaolin activated, in healthy volunteers infused with flolan; format: in vivo, human; details: 6 healthy volunteers, 4 ng/kg/min intravenously, after 60 and 120 min infusion
Method: Six healthy volunteers were administered flolan (Prostacycline) intravenously at a dose of 4 ng/kg/min for 2 h. Blood samples for whole blood viscoelastical assay (Thrombelastography [TEG]) and whole blood platelet aggregation (Multiplate) were obtained before infusion of Flolan, after 60 min infusion of Flolan and after 120 min infusion of Flolan. With regard to the TEG assay this was performed as recommended by the manufacturer and 340 μl are mixed with 20 μl CaCl 0.2 M (final concentration 11.1 mM in the cup) and kaolin at 37° C. after which the haemostatic activity is recorded as depicted in FIG. 1.

[2] = system: whole blood platelet aggregation; assay: Whole blood impedance aggregometry (Multiplate) in healthy volunteers infused with flolan; format: in vivo, human; details: 6 healthy volunteers, 4 ng/kg/min intravenously, after 60 and 120 min infusion
Method: (§2) Six healthy volunteers were administered flolan (Prostacycline) intravenously at a dose of 4 ng/kg/min for 2 h. Blood samples for whole blood viscoelastical assay (Thrombelastography [TEG]) and whole blood platelet aggregation (Multiplate) were obtained before infusion of Flolan, after 60 min infusion of Flolan and after 120 min infusion of Flolan.
Whole blood impedance aggregometry was analyzed by the Multiple Platelet function Analyzer (MultiPlate® analyzer). Analysis employing various platelet agonists: ASPItest (activation by arachidonic acid), COLtest (activation by collagen through the collagen receptor), TRAPtest (activation by TRAP-6 stimulates the thrombin receptor on the platelet surface and ADPtest (activation by ADP stimulates platelet activation by the ADP receptors).
MultiPlate continuously records platelet aggregation. The increase of impedance by the attachment of platelets onto the Multiplate sensors is transformed to arbitrary aggregation units (AU) and plotted against time as depicted in FIG. 2.

antithrombin = assay: Plasma biomarker ELISA after Flolan infusion in healthy volunteers: antithrombin; format: in vivo, human; details: 4 ng/kg/min intravenously for 2 h
Method: as §1

Protein C = assay: Plasma biomarker ELISA after Flolan infusion in healthy volunteers: Protein C; format: in vivo, human; details: 4 ng/kg/min intravenously for 2 h, in the hours after ceasing the infusion
Method: as §1

[3] = format: in vivo
Method: Ninety-four critically ill patients admitted to the intensive care unit (ICU) underwent haemofiltration with or without concomitant Flolan (prostacycline) treatment. None of the patients were suffering from Acute Traumatic Coagulopathy nor from sequelae to cardiac arrest. Flolan was administered in a low dose in the filters to prevent these from clotting and consequently there was only a minor spill over of Flolan to the systemic circulation. The patients were retrospectively reviewed.
However, patients in the flolan group were more severely ill as evaluated by a lower platelet count at start of hemofiltration, a higher frequency of severe thrombocytopenia, a higher frequency of DIC diagnoses, a higher maximum SOFA score and a higher SOFA score at hemofiltration initiation as compared to the patients receiving non-flolan.

thrombomodulin = assay: Plasma biomarker ELISA after Flolan infusion in healthy volunteers: thrombomodulin; format: in vivo, human; details: 4 ng/kg/min intravenously for 2 h, prolonged for several hours after ceasing the infusion
Method: as §1

[4] = Blood pressure and heart rate during intravenous flolan infusion in healthy volunteers; format: in vivo, human; details: 4 ng/kg/min intravenously for 2 h, any time point
Method: as §2

CCCCC[C@H](O)/C=C/[C@@H]1[C@H]2C/C(=C/CCCC(=O)O)O[C@H]2C[C@H]1O [Flolan, epoprostenol sodium]
circulating level of PAI-1 (PAI-1): declined | TEG values (R, Angle, MA), baseline vs. during infusion [1]: No significant difference | Multiplate values (agonists ASPI, COL, ADP, TRAP), baseline vs. during infusion [2]: no significant difference | circulating level of antithrombin (antithrombin): decreased | circulating level of Protein C (Protein C): decreased | mortality at 30 days ([3]; ICU patients, low dose Flolan in the haemofiltration filters, vs. 39% non-flolan, p=0.12): 21% | 90 day mortality ([3]; ICU patients, low dose Flolan in the haemofiltration filters, vs. 53% non-flolan, p=0.10): 34% | mortality at 365 days ([3]; ICU patients, low dose Flolan in the haemofiltration filters, vs. 57% non-flolan, p=0.09): 38% | Platelet count (difference before vs. after haemofiltration) ([3]; human, in vivo): +14 | haemostatic competence as evaluated by transfusion requirements ([3]; human, in vivo): does not negatively influence | total transfusion requirements and specifically of FFP during hemofiltration ([3]; human, in vivo): increased total transfusion requirements | circulating level of thrombomodulin (thrombomodulin): marked decrease | blood pressure, change from baseline [4]: did not change | heart rate, change from baseline [4]: did not change
